From a melting point compilation (Tetko et al.)

Row | melting point [°C] | Structure (SMILES)
1 | 189 | Cc1cc(C)c(NC(=O)C(C(F)(F)F)C(F)(F)F)c(C)c1
2 | 70.3 | CC(C)(C)OC(=O)NC(Cc1ccc(Br)s1)C(=O)O (stereo not drawn)
3 | 124 to 126 | Cc1cc(C(=O)O)c(C(F)(F)F)o1
4 | 73.5 | O=C(OCCOC(=O)c1ccccc1)c1ccccc1
5 | 67 to 70 | O=[N+]([O-])c1ccc(Cl)c(N=C=S)c1
6 | 120 | COC(=O)c1cc(C)[nH]c1C
7 | 6 | Oc1c(Cl)cccc1-c1ccccc1
8 | 197 to 202 | O=C(O)C=Cc1ccccc1C(=O)O
9 | 195 | COC(=O)c1c(C)cc(OC(=O)c2c(C)cc(O)c(C=O)c2O)c(C)c1O
10 | 258 | CC12CCc3c(ccc4cc(O)ccc34)C1CCC2=O (stereo not drawn)
11 | 102 | CC(=O)N(C)C(=O)COC(=O)c1ccccc1
12 | 27 | CCCCCCCCCCCCCCCCCC(=O)OCCCC
13 | 99 to 101 | CC(=O)OCC1OC(n2ncc(=O)[nH]c2=O)C(OC(C)=O)C1OC(C)=O (stereo not drawn)
14 | 21 | O=S(=O)(Cl)c1cccc(Cl)c1
15 | 89 to 90 | CCOC(=O)c1c(N)sc2c1CCCCC2
16 | 207 | NS(=O)(=O)c1ccc(Cl)c(S(N)(=O)=O)c1
17 | 124 | CCCN(CCC)c1c([N+](=O)[O-])cc(C(F)(F)F)c(N)c1[N+](=O)[O-]
18 | 41 | CCCCCCCCCCCCCCCCOC(=O)C(C)O (stereo not drawn)
19 | 235 to 238 | Nc1c(Br)cc(Br)c(F)c1C(=O)O
20 | 151 to 152 | CC(=O)Nc1ccccc1-c1cc2ccccc2[nH]1
21 | 207 to 209 | CCOC(=O)C1=C(C)NC(=S)NC1c1ccccc1 (stereo not drawn)
22 | 88 | CC(=O)c1ccc2ccc3cccc4ccc1c2c34

Row | melting point [°C] | Structure (SMILES)
23 | 235 | COC(=O)c1ccc(/C=C/c2ccc(C(=O)OC)cc2)cc1
24 | 110 to 114 | COc1cc2c(cc1OC)C(CC#N)NCC2 (stereo not drawn)
25 | 108 | CCCCCCCCCC(N)=O
26 | 62 | COc1cc(C=O)ccc1F
27 | 219 | COc1cccc2cc(C(=O)O)oc12
28 | 126 to 132 | Cc1cc(Cl)cc([N+](=O)[O-])c1N
29 | 212 to 215 | O=C(O)C=Cc1cc([N+](=O)[O-])ccc1Sc1ccc(Cl)cc1
30 | 60.5 to 61.5 | O=C(Oc1c(F)c(F)c(F)c(F)c1F)c1cccc(Oc2ccccn2)c1
31 | 59 | CCCCCCCCCCCCCCCC(=O)c1ccccc1
32 | 264 to 266 | O=C1C(=Cc2ccc(-c3ccc(Cl)cc3)o2)CCC1=Cc1ccc(-c2ccc(Cl)cc2)o1
33 | 63 to 66 | CC(=O)c1ccc(OCCCCCBr)cc1O
34 | 2 | Cc1ccccc1CCO
35 | 84 | Cc1cccc(NC(=O)c2cncc(Cl)n2)c1
36 | 125 | O=S(=O)(O)c1ccc2cc(O)ccc2c1
37 | 300 | CCOc1c(Nc2ccc(C(=O)O)cc2)c(=O)c1=O
38 | 295 | COc1cc(O)c2c(=O)c(O)c(-c3ccc(O)c(O)c3)oc2c1
39 | 163 | O=Cc1ccc(O)c(O)c1O
40 | 215 | Nc1ccc(N=Nc2ccc([N+](=O)[O-])cc2)cc1
41 | 156 to 158 | Cc1cc(S(=O)(=O)Cc2ccc(N)cc2)c(C)cc1Cl
42 | 185 | CCOC(=O)C1=C(C)NC(=O)NC1c1ccc(Cl)cc1 (stereo not drawn)
43 | 71.5 | CC(/N=N/c1cc(Cl)cc(Cl)c1O)=C(\Cl)C(=O)OCCOCCOCCCl
44 | 38 | COC(=O)CCCCCCCCC(=O)OC

The next lines start with the compound.

Row | Structure (SMILES) | melting point [°C]
45 | CC(=O)OCC1OC(OC2(COC(C)=O)OC(COC(C)=O)C(OC(C)=O)C2OC(C)=O)C(OC(C)=O)C(OC(C)=O)C1OC(C)=O (stereo not drawn) | 86.5
46 | CC1(C)C2CCC1(C)C(N=C1C(=O)Nc3ccccc31)C2N=C1C(=O)Nc2ccccc21 (stereo not drawn) | 234
47 | COc1cc(C2Nn3c(nnc3-c3ccc([N+](=O)[O-])cc3)S2)ccc1O (stereo not drawn) | 226
48 | FC(F)(F)C(Cl)Br (stereo not drawn) | -118
49 | NCc1ccccc1-n1cccc1 | 156 to 157
50 | FC(Cl)(Cl)CCl | -140
51 | O=C(C1=NOC2C(=O)N(c3ccccc3)C(=O)C12)c1cccs1 (stereo not drawn) | 174
52 | CC(C)(C)C(=O)Oc1ccc([N+](=O)[O-])cc1 | 92 to 96
53 | CN1CCN(C2=Nc3ccccc3Cc3ccccc32)CC1 | 137
54 | O=Cc1ccc2c(c1)OCCO2 | 52 to 53
55 | CC(C)C(C)C(O)C(O)C(C)C1CCC2C3COC(=O)C4CC(O)C(O)CC4(C)C3CCC12C (stereo not drawn) | 255
56 | OC(c1ccc(F)cc1)c1ccc(F)cc1 | 47
57 | NNC(=O)CNS(=O)(=O)c1cccc2nsnc12 | 151 to 153
58 | N#C/C(=C/c1cccs1)c1nc(-c2ccc(Cl)cc2)cs1 | 170
59 | FC(F)(F)c1cc(C(F)(F)F)[nH]n1 | 82 to 84
60 | CC/C=C/Br | -100
61 | CC1(C)CC(=O)C(=NNc2ccccc2)C(=O)C1 | 148
62 | Nc1ccc(-c2ccc3nn(-c4ccccc4)nc3c2)cc1 | 224 to 225
63 | CC(=O)Nc1ccc(C#Cc2ccc(NC(C)=O)cc2)cc1 | 281
64 | CN(C)c1ccc(N)cc1 | 53
65 | FC1(F)C(F)(F)C(F)(Cl)C1(F)Cl (stereo not drawn) | -15

Row | Structure (SMILES) | melting point [°C]
66 | CC(C)(C)S(=O)(=O)c1cnc(N2CCCC2)nc1N | 199 to 201
67 | Cc1ccc(CNC2=CC(=O)c3ccccc3C2=O)nc1 | 134 to 136
68 | O=C(O)C1CC2CC1CCC2O (stereo not drawn) | 160 to 169
69 | Cc1cccn2c(=O)c(C(=O)c3ccccc3)cnc12 | 146 to 147
70 | Cc1c(NC(=O)c2cccnc2)c(=O)n(-c2ccccc2)n1C | 253
71 | Cc1ccccc1N1CSc2nnc(-c3cccnc3)n2C1 | 202
72 | Oc1ccc2c(c1)C13CCCCC1C(C2)N(CCc1ccccc1)CC3 (stereo not drawn) | 244
73 | Cc1ccc2c(ccc3ccccc32)n1 | 76
74 | O=[N+]([O-])c1cnc(NC2=NCCN2)s1 | > 250
75 | NC(=O)c1ccccc1OC(F)(F)F | 154
76 | Cn1cnc(S(=O)(=O)Cl)c1 | 85 to 90
77 | CNc1ccc(C#N)cc1N | 139 to 142
78 | Cc1ccncc1C | -11
79 | O=C(Cl)c1cc([N+](=O)[O-])cc([N+](=O)[O-])c1 | 74
80 | O=C(O)C(=CN(O)c1ccccc1)c1ccccc1 | 75
81 | OCc1ccc(-c2ncccn2)cc1 | 76.5 to 77.5
82 | O=C(O)CCCCCCCCCCCO | 86.5
83 | N#CCSc1ccc2ccccc2c1 | 83 to 86
84 | Sc1nc(S)nc(S)n1 | 300
85 | Cc1ccncc1S(=O)(=O)O | 300
86 | O=[N+]([O-])c1c(O)ncnc1O | 300

Row | Structure (SMILES) | melting point [°C]
87 | CC(=O)O[Si](OC(C)=O)(OC(C)(C)C)OC(C)(C)C | -4
88 | CCC(C)(C)N | -105
89 | COc1ccc(NN=C2C(=O)OC(C)(C)OC2=O)cc1 | 128
90 | Oc1ccc2ccncc2c1 | 227
91 | FC(F)(F)c1cccc(Cl)c1 | -56
92 | [O-][P+](O)(O)CCN(CP(c1ccccc1)c1ccccc1)CP(c1ccccc1)c1ccccc1 | 147
93 | CCCCOC(=O)CCC(=O)OCCCC | -29.2
94 | BrCOCBr | -34
95 | FC(F)(F)c1cccnc1S | 180 to 182
96 | CN1CC(C(=O)NC2(C)OC3(O)C4CCCN4C(=O)C(Cc4ccccc4)N3C2=O)C=C2c3cccc4[nH]cc(c34)CC21 (stereo not drawn) | 214
97 | CC1(C)C2CCC1(C)C(O)C2C(c1ccccc1)c1ccccc1 (stereo not drawn) | 171
98 | CN(C)CCC=C1c2ccccc2CSc2ccccc21 | 56
99 | N[C@@H]1CC[C@H](C(=O)O)C1 | 192
100 | O=C(F)c1ccccc1 | -28
101 | O=CC(Cl)=Cc1ccccc1 | 20 to 22
102 | Cc1n[nH]c(C)c1CCBr | 118 to 120
103 | NC(=O)C1CC1 | 124
104 | CSc1nn(-c2ccccc2)cc1C(N)=S | 130 to 133
105 | c1ccnnc1 | -8
106 | O=C(c1ccccc1)c1c(-c2ccccc2)n(C(=O)c2ccccc2)c2cc([N+](=O)[O-])ccc12 | 204
107 | O=C(Cl)c1ccc(-c2ccccc2)s1 | 76 to 80

Row | Structure (SMILES) | melting point [°C]
108 | Cc1ccc2c(c1)CCCN2 | 35
109 | Cn1cnc(S(N)(=O)=O)c1 | 222 to 224
110 | N#CC1CC2CCC1C2 (stereo not drawn) | 44
111 | O=CNc1ccc(Cl)cc1C(=O)c1ccccc1 | 89 to 91
112 | Cc1ncc([N+](=O)[O-])n1CC(C)O (stereo not drawn) | 76
113 | OCc1ccc2nccn2c1 | 106 to 108
114 | Cc1noc(N)c1C | 119 to 120
115 | Cc1cc2c(N)cccc2nn1 | 189 to 191
116 | CC12CC(O)C3C(CCC4(O)CC(O)CC(O)C34CO)C1(O)CCC2C1=CC(=O)OC1 (stereo not drawn) | 236
117 | O=S1(=O)OC(c2ccc(O)cc2)(c2ccc(O)cc2)c2ccccc21 | 300
118 | CC(=O)CC(C)=O | -23
119 | O=C(O)c1ccccc1S(=O)(=O)O | 142
120 | Cc1ccc2cc(N(C)C)ccc2n1 | 101
121 | Cc1ccc(C)c2c1C(=O)c1ccccc1C2=O | 140
122 | Cc1nc(-c2cccc(C=O)c2)cs1 | 76 to 80
123 | Brc1sc(Br)c2c1OCCO2 | 98
124 | COc1ccccc1C1Nn2c(nnc2-c2ccccc2)S1 (stereo not drawn) | 196
125 | N#CC(C#N)=Cc1sccc1C=O | 126 to 130
126 | C=Cc1ccc(C=C)cc1 | 31
127 | Nc1ccc(F)c(F)c1 | 21
128 | NS(=O)(=O)c1ccccc1[N+](=O)[O-] | 191
